Kd data for 2 compounds are collected here from ChEMBL document CHEMBL4321812, “Structure-based rational design of staurosporine-based fluorescent probe with broad-ranging kinase affinity for kinase panel application” (Bioorg Med Chem Lett, 2019).

The target of test [1] is Proto-oncogene tyrosine-protein kinase receptor Ret (Homo sapiens, UniProt P07949). The test is described as follows: Binding affinity to recombinant N-terminal His-FLAG-GST-tagged RET (unknown origin) (658 to 1114 residues) expressed in baculovirus infected Sf9 insect cells incubated for 1 hr by TR-FRET assay.
Test [2] concerns the target Mitogen-activated protein kinase 15 (Homo sapiens, UniProt Q8TD08). The experiment in a line: Binding affinity to recombinant full-length N-terminal His-FLAG-GST-tagged MAPK15 (unknown origin) expressed in baculovirus infected Sf9 insect cells incubated for 1 hr by TR-FRET assay.
In test [3] the target is Phosphorylase b kinase gamma catalytic chain, skeletal muscle/heart isoform (Homo sapiens, UniProt Q16816). The test is described as follows: Binding affinity to recombinant full-length N-terminal His-FLAG-GST-tagged PHKG1 (unknown origin) expressed in baculovirus infected Sf9 insect cells incubated for 1 hr by TR-FRET assay.
Phosphorylase b kinase gamma catalytic chain, skeletal muscle/heart isoform, sequence (Q16816 whole entry, canonical isoform): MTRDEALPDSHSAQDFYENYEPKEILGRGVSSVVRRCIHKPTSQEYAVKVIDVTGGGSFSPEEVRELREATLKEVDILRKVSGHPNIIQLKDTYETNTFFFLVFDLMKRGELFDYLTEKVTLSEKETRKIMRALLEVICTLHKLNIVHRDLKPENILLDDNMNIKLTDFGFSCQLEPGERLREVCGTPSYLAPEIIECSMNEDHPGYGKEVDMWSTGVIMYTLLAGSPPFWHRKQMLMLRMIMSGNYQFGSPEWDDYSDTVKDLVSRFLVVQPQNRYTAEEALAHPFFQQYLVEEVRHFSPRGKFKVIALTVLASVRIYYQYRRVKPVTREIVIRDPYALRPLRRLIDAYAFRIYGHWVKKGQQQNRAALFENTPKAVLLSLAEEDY
For test [4], the target named is Tyrosine-protein kinase receptor UFO (Homo sapiens, UniProt P30530). The experiment in a line: Binding affinity to recombinant full-length N-terminal His-FLAG-GST-tagged AXL (unknown origin) expressed in baculovirus infected Sf9 insect cells incubated for 1 hr by TR-FRET assay.
Tyrosine-protein kinase receptor UFO, sequence (P30530 whole entry): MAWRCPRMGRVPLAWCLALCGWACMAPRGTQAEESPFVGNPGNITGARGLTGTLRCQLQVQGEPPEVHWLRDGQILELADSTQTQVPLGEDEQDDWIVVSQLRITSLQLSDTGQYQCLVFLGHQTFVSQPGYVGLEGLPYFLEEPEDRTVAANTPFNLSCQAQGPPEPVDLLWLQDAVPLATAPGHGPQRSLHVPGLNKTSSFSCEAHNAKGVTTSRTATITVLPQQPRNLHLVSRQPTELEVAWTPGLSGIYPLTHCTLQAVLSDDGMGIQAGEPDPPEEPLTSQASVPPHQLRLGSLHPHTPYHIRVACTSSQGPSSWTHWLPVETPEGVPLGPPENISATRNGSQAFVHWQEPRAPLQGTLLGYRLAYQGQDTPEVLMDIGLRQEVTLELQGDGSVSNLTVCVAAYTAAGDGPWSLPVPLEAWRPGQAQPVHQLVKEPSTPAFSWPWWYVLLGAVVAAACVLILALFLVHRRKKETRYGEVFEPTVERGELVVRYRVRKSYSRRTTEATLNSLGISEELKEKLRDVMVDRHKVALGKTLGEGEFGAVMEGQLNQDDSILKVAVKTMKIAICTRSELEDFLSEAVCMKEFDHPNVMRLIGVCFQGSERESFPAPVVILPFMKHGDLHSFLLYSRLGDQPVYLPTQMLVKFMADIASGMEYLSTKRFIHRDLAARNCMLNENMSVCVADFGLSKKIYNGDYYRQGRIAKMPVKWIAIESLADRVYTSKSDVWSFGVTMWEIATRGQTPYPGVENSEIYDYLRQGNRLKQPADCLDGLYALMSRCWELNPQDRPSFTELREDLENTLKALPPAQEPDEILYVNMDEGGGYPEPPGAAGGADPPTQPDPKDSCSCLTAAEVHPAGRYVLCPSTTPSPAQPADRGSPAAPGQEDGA
The target of test [5] is Dual specificity mitogen-activated protein kinase kinase 1 (Homo sapiens, UniProt Q02750). The experiment in a line: Binding affinity to recombinant full-length N-terminal His-FLAG-tagged MAP2K1 (unknown origin) expressed in baculovirus infected Sf9 insect cells incubated for 1 hr by TR-FRET assay.
For test [6], the target named is AMP-activated protein kinase (AMPK) alpha-1/beta-1/gamma-1 (Homo sapiens, UniProt P54619+Q13131+Q9Y478). The experiment in a line: Binding affinity to recombinant human full-length GST N-Terminal tagged-AMPK alpha1/N-Terminal GST tagged-AMPK beta1/N-Terminal his-tagged AMPK gamma1 expressed in baculovirus expression system incubated for 1 hr by TR-FRET assay.
AMP-activated protein kinase (AMPK) alpha-1/beta-1/gamma-1, sequence (P54619 whole entry): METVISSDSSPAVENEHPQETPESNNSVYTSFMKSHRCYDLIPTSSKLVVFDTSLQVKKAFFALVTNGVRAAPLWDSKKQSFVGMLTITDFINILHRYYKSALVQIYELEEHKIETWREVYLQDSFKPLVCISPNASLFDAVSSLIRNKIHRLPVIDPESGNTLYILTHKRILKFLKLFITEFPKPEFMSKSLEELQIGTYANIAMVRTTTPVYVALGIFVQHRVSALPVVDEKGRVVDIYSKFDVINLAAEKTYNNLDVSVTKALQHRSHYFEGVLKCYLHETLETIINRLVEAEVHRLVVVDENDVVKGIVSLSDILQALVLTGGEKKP
AMP-activated protein kinase (AMPK) alpha-1/beta-1/gamma-1, sequence (Q9Y478 whole entry): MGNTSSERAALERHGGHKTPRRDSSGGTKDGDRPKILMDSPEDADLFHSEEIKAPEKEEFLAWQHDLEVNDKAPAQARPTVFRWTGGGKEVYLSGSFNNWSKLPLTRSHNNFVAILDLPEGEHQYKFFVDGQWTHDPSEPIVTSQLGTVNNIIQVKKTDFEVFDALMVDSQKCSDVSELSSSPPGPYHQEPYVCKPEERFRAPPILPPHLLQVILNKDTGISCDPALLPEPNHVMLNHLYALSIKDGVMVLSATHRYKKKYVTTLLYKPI
AMP-activated protein kinase (AMPK) alpha-1/beta-1/gamma-1, sequence (Q13131 whole entry): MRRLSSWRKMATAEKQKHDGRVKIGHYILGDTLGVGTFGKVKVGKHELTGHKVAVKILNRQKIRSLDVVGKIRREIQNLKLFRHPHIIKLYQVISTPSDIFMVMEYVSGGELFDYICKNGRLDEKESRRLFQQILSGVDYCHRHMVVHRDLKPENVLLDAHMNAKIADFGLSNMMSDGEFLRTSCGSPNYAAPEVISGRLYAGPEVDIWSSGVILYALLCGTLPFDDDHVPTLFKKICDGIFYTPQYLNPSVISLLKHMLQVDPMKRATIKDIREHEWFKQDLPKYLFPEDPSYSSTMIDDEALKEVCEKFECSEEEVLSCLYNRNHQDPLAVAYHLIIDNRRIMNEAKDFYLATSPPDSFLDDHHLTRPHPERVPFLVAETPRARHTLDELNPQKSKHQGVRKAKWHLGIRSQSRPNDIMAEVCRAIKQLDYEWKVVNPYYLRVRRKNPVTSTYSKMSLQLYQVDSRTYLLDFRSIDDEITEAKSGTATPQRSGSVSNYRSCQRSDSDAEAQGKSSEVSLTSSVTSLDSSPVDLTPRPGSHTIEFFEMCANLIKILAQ
Test [7] has as its target Mitogen-activated protein kinase kinase kinase kinase 2 (Homo sapiens, UniProt Q12851). The test is described as follows: Binding affinity to recombinant full-length N-terminal His-FLAG-GST-tagged MAP4K2 (unknown origin) expressed in baculovirus infected Sf9 insect cells incubated for 1 hr by TR-FRET assay.
Test [8] deals with NUAK family SNF1-like kinase 2 (Homo sapiens, UniProt Q9H093). The experiment in a line: Binding affinity to recombinant full-length N-terminal His-FLAG-tagged NUAK2 (unknown origin) expressed in baculovirus infected Sf9 insect cells incubated for 1 hr by TR-FRET assay.
NUAK family SNF1-like kinase 2, sequence (Q9H093 whole entry): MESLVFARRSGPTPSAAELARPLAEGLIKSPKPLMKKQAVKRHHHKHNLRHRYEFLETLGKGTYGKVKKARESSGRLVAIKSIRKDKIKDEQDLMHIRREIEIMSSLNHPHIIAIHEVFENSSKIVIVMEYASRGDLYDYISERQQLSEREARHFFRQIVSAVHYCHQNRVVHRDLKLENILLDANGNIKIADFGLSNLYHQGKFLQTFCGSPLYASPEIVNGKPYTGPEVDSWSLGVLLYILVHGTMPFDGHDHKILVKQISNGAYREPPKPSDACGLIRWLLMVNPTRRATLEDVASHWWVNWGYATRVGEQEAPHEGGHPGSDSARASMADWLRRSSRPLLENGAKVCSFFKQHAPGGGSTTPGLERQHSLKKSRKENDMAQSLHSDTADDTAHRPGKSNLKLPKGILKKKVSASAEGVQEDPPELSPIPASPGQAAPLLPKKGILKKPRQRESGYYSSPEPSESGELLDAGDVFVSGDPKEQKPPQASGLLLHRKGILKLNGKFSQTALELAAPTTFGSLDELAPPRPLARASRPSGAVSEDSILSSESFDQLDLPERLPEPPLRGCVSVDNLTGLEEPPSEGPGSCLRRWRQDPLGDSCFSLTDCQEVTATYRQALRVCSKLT
For test [9], the target named is Homeodomain-interacting protein kinase 4 (Homo sapiens, UniProt Q8NE63). The experiment in a line: Binding affinity to recombinant full-length N-terminal His-FLAG-tagged HIPK4 (unknown origin) expressed in baculovirus infected Sf9 insect cells incubated for 1 hr by TR-FRET assay.
The target in test [10] is Tyrosine-protein kinase Mer (Homo sapiens, UniProt Q12866). The test is described as follows: Binding affinity to recombinant full-length N-terminal His-FLAG-GST-tagged MERTK (unknown origin) (528 to 999 residues) expressed in baculovirus infected Sf9 insect cells incubated for 1 hr by TR-FRET assay.
In another test the target is CDK7/Cyclin H/MNAT1 (Homo sapiens, UniProt P50613). The experiment in a line: Binding affinity to recombinant human full length N-terminal GST-tagged and N-terminal GST-tagged CDK7/cyclinH/MAT1 expressed in baculovirus expression system using CTD3 peptide as substrate incubated for 1 hr by TR-FRET assay.
Test [11] deals with Tyrosine-protein kinase JAK3 (Homo sapiens, UniProt P52333). The test is described as follows: Binding affinity to recombinant full-length N-terminal His-FLAG-GST-tagged JAK3 (unknown origin) (795 to 1124 residues) expressed in baculovirus infected Sf9 insect cells incubated for 1 hr by TR-FRET assay.
The target of test [12] is Testis-specific serine/threonine-protein kinase 3 (Homo sapiens, UniProt Q96PN8). The test is described as follows: Binding affinity to recombinant full-length N-terminal His-FLAG-GST-tagged TSSK3 (unknown origin) expressed in baculovirus infected Sf9 insect cells incubated for 1 hr by TR-FRET assay.
Testis-specific serine/threonine-protein kinase 3, sequence (Q96PN8 whole entry, the tested form may be a part): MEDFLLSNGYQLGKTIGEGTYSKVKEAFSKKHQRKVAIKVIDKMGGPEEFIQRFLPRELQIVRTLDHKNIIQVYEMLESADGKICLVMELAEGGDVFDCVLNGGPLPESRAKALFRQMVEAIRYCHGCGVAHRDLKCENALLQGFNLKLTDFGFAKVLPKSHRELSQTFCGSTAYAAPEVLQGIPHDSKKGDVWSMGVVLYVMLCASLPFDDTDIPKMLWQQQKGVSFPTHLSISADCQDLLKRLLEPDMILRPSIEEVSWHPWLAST
Test [13] addresses Death-associated protein kinase 1 (Homo sapiens, UniProt P53355). The test is described as follows: Binding affinity to recombinant full-length N-terminal His-FLAG-GST-tagged DAPK1 (unknown origin) (1 to 289 residues) expressed in baculovirus infected Sf9 insect cells incubated for 1 hr by TR-FRET assay.
In another test the target is Focal adhesion kinase 1 (Homo sapiens, UniProt Q05397). The experiment in a line: Binding affinity to recombinant human full length N-terminal GST-tagged PTK2 expressed in baculovirus expression system incubated for 1 hr by TR-FRET assay.
For test [14], the target named is Rho-associated protein kinase 1 (Homo sapiens, UniProt Q13464). The experiment in a line: Binding affinity to recombinant full-length N-terminal His-FLAG-GST-tagged ROCK1 (unknown origin) (1 to 477 residues) expressed in baculovirus infected Sf9 insect cells incubated for 1 hr by TR-FRET assay.
Test [15] deals with Vascular endothelial growth factor receptor 2 (Homo sapiens, UniProt P35968). The experiment in a line: Binding affinity to recombinant human full length N-terminal GST-tagged KDR (790 to 1356 residues) expressed in baculovirus expression system using CSKtide as substrate incubated for 1 hr by TR-FRET assay.
The target of a further test is Misshapen-like kinase 1 (Homo sapiens, UniProt Q8N4C8). The test is described as follows: Binding affinity to recombinant full-length N-terminal His-FLAG-GST-tagged MINK1 (unknown origin) (1 to 314 residues) expressed in baculovirus infected Sf9 insect cells incubated for 1 hr by TR-FRET assay.
Test [16] deals with Protein kinase C theta type (Homo sapiens, UniProt Q04759). The experiment in a line: Binding affinity to recombinant full-length N-terminal His-GST-tagged PRKCQ (unknown origin) expressed in baculovirus infected Sf9 insect cells incubated for 1 hr by TR-FRET assay.
In test [17] the target is Ribosomal protein S6 kinase alpha-6 (Homo sapiens, UniProt Q9UK32). The test is described as follows: Binding affinity to recombinant full-length N-terminal His-FLAG-tagged RPS6KA6 (unknown origin) expressed in baculovirus infected Sf9 insect cells incubated for 1 hr by TR-FRET assay.
Ribosomal protein S6 kinase alpha-6, sequence (Q9UK32 whole entry): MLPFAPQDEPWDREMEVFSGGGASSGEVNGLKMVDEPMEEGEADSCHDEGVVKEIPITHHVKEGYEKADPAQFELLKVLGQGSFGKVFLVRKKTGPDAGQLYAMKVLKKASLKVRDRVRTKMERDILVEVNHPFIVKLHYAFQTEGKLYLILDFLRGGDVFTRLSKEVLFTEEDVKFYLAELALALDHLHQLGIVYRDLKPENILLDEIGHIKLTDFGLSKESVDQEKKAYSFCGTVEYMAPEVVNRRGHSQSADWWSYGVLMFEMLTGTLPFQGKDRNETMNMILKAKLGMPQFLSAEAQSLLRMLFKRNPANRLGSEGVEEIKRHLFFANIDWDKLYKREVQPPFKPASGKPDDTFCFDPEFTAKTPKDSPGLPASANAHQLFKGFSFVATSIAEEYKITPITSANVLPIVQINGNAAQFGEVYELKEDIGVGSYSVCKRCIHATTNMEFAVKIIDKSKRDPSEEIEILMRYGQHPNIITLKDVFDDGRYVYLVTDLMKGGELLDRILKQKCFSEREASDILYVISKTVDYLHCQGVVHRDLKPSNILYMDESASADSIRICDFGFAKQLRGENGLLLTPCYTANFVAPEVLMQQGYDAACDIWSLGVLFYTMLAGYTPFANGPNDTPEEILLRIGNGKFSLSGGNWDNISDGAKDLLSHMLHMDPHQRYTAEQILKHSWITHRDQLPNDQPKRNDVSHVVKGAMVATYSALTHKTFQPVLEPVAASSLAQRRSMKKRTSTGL
Test [18] deals with Protein kinase C eta type (Homo sapiens, UniProt P24723). The experiment in a line: Binding affinity to recombinant full-length N-terminal His-FLAG-GST-tagged PRKCH (unknown origin) expressed in baculovirus infected Sf9 insect cells incubated for 1 hr by TR-FRET assay.
The target in test [19] is Serine/threonine-protein kinase TAO1 (Homo sapiens, UniProt Q7L7X3). The experiment in a line: Binding affinity to recombinant full-length N-terminal His-FLAG-GST-tagged TAOK1 (unknown origin) (1 to 314 residues) expressed in baculovirus infected Sf9 insect cells incubated for 1 hr by TR-FRET assay.
Test [20] deals with Serine/threonine-protein kinase 16 (Homo sapiens, UniProt O75716). The test is described as follows: Binding affinity to recombinant full-length N-terminal His-FLAG-GST-tagged STK16 (unknown origin) expressed in baculovirus infected Sf9 insect cells incubated for 1 hr by TR-FRET assay.
The target of test [21] is Protein kinase C delta type (Homo sapiens, UniProt Q05655). The experiment in a line: Binding affinity to recombinant human full length N-terminal GST-tagged PRKCD expressed in baculovirus expression system using PKC peptide as substrate incubated for 1 hr by TR-FRET assay.

Mitogen-activated protein kinase kinase kinase kinase 2, sequence (Q12851 whole entry): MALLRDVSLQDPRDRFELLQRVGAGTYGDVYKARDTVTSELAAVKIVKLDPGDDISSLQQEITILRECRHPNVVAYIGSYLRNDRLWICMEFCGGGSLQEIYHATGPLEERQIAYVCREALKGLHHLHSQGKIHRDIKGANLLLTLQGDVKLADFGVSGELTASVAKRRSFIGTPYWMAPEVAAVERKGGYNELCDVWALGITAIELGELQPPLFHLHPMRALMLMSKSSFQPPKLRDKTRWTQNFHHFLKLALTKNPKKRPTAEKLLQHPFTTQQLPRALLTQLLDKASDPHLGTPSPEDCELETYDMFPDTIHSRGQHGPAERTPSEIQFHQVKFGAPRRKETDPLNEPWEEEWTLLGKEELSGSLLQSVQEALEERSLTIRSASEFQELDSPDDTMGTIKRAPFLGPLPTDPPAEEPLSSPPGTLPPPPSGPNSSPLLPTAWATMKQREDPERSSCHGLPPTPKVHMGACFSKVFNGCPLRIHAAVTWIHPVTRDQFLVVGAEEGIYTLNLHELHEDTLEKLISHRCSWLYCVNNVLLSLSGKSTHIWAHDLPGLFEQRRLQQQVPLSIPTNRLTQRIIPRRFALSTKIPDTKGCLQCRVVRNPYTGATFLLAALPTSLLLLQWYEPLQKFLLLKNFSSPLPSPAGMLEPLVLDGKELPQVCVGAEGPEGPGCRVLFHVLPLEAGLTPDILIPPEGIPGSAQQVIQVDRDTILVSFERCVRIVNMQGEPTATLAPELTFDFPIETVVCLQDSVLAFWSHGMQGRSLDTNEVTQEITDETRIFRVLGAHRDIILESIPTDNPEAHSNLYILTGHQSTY

Turning to `CO[C@@H]1[C@H](NCCOCCOCCOCCNC(=O)CCC2=[N+]3C(=Cc4c(C)cc(C)n4[B-]3(F)F)C=C2)C[C@H]2O[C@]1(C)n1c3ccccc3c3c4c(c5c6ccccc6n2c5c31)C(=O)NC4`, the dissociation constant Kd in test [1] is 40 nM; in [2], 113 nM; in test [3], 1 nM; in [4], 313 nM; in test [5], 328 nM; in test [6] it was 13 nM. Also, the Kd in test [7] came to 6 nM; in test [8] it was 10 nM; in [9], 424 nM; in test [10], 107 nM; on CDK7/Cyclin H/MNAT1 it was 894 nM; in [11], 14 nM. Moreover, the Kd in [12] was determined as 380 nM; in [13], 69 nM; at Focal adhesion kinase 1, 401 nM; in test [14], 35 nM; in test [15] it was 193 nM; on Misshapen-like kinase 1 it was 228 nM. Moreover, the Kd in test [16] was found to be 28 nM; in test [17], 21 nM; in test [18], 61 nM; in [19] it was 25 nM; in [20] it was 365 nM; in test [21] it was 13 nM.
Regarding `CO[C@@H]1[C@H](N(C)CCOCCOCCOCCNC(=O)CCC2=[N+]3C(=Cc4c(C)cc(C)n4[B-]3(F)F)C=C2)C[C@H]2O[C@]1(C)n1c3ccccc3c3c4c(c5c6ccccc6n2c5c31)C(=O)NC4`, the Kd worked out at 54 nM in test [1]; 306 nM in test [2]; 3 nM in test [3]; 559 nM in test [4]; 428 nM in test [5]; 15 nM in [6]. Also, the Kd worked out at 7 nM in test [7]; 11 nM in [8]; 472 nM in test [9]; 108 nM in test [10]; 819 nM on CDK7/Cyclin H/MNAT1; 13 nM in [11]. Moreover, the Kd in test [12] is 330 nM; in test [13], 59 nM; at Focal adhesion kinase 1, 308 nM; in test [14], 26 nM; in test [15], 135 nM; at Misshapen-like kinase 1 it was 158 nM. The Kd in test [16] is 19 nM; in test [17], 14 nM; in test [18], 37 nM; in test [19], 15 nM; in test [20], 110 nM; in test [21] it was 3 nM.
